Laboratory results published in patent US6906100B2, “Compounds and compositions derived from olives and methods of the use thereof” (Lavipharm S.A., priority 2002, dated 2005).

Columns and labels:
Jurkat cells = test: comet assay (single cell gel electrophoresis): protection of DNA of intact cells exposed to H2O2; format: cell-based; conditions: H2O2 generated by glucose oxidase; for protective activity on cells against oxidative stress (decrease of induced DNA damage): 10 min exposure
Description: In the analysis of the antioxidant activity of the extracts I, II, III and IV, as well as, of the pure Compounds 1-9, a method based on measuring the relative protection of DNA of intact cells was performed. This was done with the use of Jurkat cell cultures (a cell line of T-lymph-cells), which were grown in RPMI-1640 enriched with fetal bovine calf serum (10%), penicillin, streptomycin and glutamine. The cells were incubated with the extracts or the purified compounds in the presence of glucose oxidase (60 ng/100 ml) used for the generation of H2O2. After exposure of the cells to H2O2 for 10 min, the degree of DNA damage was evaluated using a specialized method, “single cell gel electrophoresis”, also known as the “comet assay”. The comet assay method is described in the following references: 1. Barbouti A. et al., “DNA Damage And Apoptosis In Hydrogen Peroxide-Exposed Jurkat Cells: Bolus Addition Versus Continuous Generation Of H2O2,” Free Radical Biology and Medicine, 33(5): 691-702, Elsevier Press (2002); as well as Panagiotidis M. et al. (1999) Free Radical Biology and Medicine, 26(5-6): 548-556; Doulias P-T. et al. (2001) Free Radical Biology and Medicine, 30(6): 679-685; Tselepis A. et al. (2001) Free Radical Biology and Medicine, 30(12): 1357-1364; and Barbouti A. et al. (2001) Free Radical Biology and Medicine, 31(4): 490-498 5.
Jurkat cells—a cell line of lymphocytic origin—were exposed to continuously generated hydrogen peroxide, H2O2 and the effects of this treatment on cellular DNA was evaluated according to the references above. […]
The graphic results of the “comet assay” for the waste water extract (IV) and tyrosol (Compound 4), 2-(5-ethylidene-2-oxo-tetrahydropyran-4-yl) acetic acid (from the compound class of lactones or Compound 6) and hydroxytyrosol (Compound 7) are depicted below in FIGS. 3-6, respectively. […] The values are expressed as mean ±SD (n=3).

[1] = antioxidant ability by usual chemical methods (e.g. DPPH)

SMILES	dose dependence of protection (Jurkat cells)	protective activity on cells against oxidative stress (decrease of induced DNA damage) (Jurkat cells)	antioxidant ability [1]
CC=C1COC(=O)CC1CC(=O)O (stereo not shown) [2-(5-ethylidene-2-oxo-tetrahydropyran-4-yl) acetic acid]	dose-dependent protection	strong protective activity	does not show any antioxidant ability
OCCc1ccc(O)cc1 [tyrosol, Tyrosol]		not	
